Source: patent publication US5801149A, “Inhibition of signal transduction molecules” (Joslin D-abetes Center, Inc., priority 1995, dated 1998)
Non-standard residues stand in square brackets, D forms with d. Residues, ends and D or L forms follow the SMILES beside them. No end group written: not given here. Pmp = N[C@@H](Cc1ccc(CP(=O)(O)O)cc1)C(=O)O; pY = N[C@@H](Cc1ccc(OP(=O)(O)O)cc1)C(=O)O

Legend:
SH2 domain of Src = SH2 domain of Src (Homo sapiens, UniProt P12931)
Description: (§1) In these experiments, one or both hydrogen atoms were replaced on Pmp at the carbon position between the phenyl ring and the phosphonate.

[1] = target: T1, p85 SH2 domains (SH2/GST fusion protein) (Homo sapiens, UniProt P27986); test: Biospecific interaction analysis of binding to p85 SH2 domains; conditions: steady-state extrapolation, Scatchard-like analysis
T1 construct: GST
Description: Therefore, mT-pY315 binding to p85 SH2 domains was analyzed using biospecific interaction analysis as previously described to obtain a more accurate estimate for KD. Series of data were obtained during real-time binding experiments with different concentrations of SH2/GST fusion protein (data not shown).

[2] = target: T2, association between pp60^c-grc /mT and PI 3-kinase (Mus musculus, UniProt P26450); test: Inhibition of in vitro association of cytosolic PI 3-kinase activity (Balb/3T3 lysate) with immunopurified pp60^c-grc /mT; format: biochemical; conditions: absence of sodium vanadate (active PTPases); peptide at about ID50
T2 construct: endogenous in cells; host or cells: Balb/3T3 cells (PI 3-kinase); pp60c-src/mT from baculovirus-infected Sf9 cells
Description: Inhibition of the in vitro Association of PI 3-Kinase Activity With Immunopurified pp60^c-grc /mT. Baculovirus-expressed pp60^c-grc /mT complex was immunopurified from infection Sf9 insect cell (Piwnica-Worms et al., 1990, J. Virol. 64:61-68) lysates as described (Auger et al., 1990, 1992, J. BioL Chem. 267:5408-5415). PI 3-kinase activity was obtained directly from crude Balb/3T3 cell lysates as follows. After washing confluent 10 cm dishes with phosphate-buffered saline, Balb/3T3 cells were treated with lysis buffer (137 mM NaCI, 20 mM Hepes, 1 mM MgCl2, 1 mM CaCl2, 10% glycerol, 1% Nonidet P-40, and 1 μg/ml each of leupeptin, pepstatin A and aprotinin, pH 7.25) in the presence or absence of 0.15 mM sodium vanadate. Following a 10 min incubation with lysis buffer, cells were scrape-harvested and particulate debris was removed from the lysates by centrifugation at 12,000×g for 5 min. at 4° C. Varying concentrations of peptides were added directly to the lysates and incubated at 4° C. for 30 min.
Lysate-peptide mixtures were combined with protein A-Sepharose beads containing immunoprecipitated pp60^c-grc /mT complexes. After washing, the beads were used to catalyze phosphatidylinositol phosphorylation as described (Whitman et al., 1985, Nature 315:239-242; Auger et al., 1989, Cell 57:167-175, 1990, Methods in Inositide Res. pp. 159-166). […]

Rat PTPase 1B = target: T3, Rat PTPase 1B (Rattus norvegicus, UniProt P20417); test: PTPase 1B peptide dephosphorylation (Km) and inhibition (Ki); format: biochemical
T3 construct: cloning the full-length cDNA into the bacterial expression vector, PKK233-2; made in house; host or cells: bacteria (vector PKK233-2)
T3 sequence (P20417 1-432): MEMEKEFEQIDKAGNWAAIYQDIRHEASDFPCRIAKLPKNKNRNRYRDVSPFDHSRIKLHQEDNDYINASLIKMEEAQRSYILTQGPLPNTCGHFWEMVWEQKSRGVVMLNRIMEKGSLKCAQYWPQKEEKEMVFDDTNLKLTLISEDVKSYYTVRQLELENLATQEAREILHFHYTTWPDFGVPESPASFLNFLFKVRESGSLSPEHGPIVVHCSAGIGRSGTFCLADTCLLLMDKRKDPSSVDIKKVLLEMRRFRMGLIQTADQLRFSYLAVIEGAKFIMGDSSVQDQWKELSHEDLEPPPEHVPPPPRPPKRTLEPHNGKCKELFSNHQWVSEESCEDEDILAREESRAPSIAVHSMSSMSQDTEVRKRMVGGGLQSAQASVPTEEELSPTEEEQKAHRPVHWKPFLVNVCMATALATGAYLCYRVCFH
Description: The phosphopeptides were used as substrates of PTPase 1B, a single catalytic domain PTPase with a […] tissue distribution (Hunter et al., 1989, cell 58:1013). Rat PTPase 1B (Guan et al., 1990, Proc. Natl., Acad. Sci. USA 87:1501) was obtained by PCR and cloning the full-length cDNA into the bacterial expression vector, PKK233-2.
Sequence specificity for peptide dephosphorylation was observed, with apparent Km values ranging from <2 μM for the phospho-middle t sequence to >2 mM for pTyr itself (Table 3).
Several phosphono peptides were tested for the ability to inhibit PTPase 1B activity and KI values determined by methods known to those skilled in the art.

[3] = Amino acid side chain pK titration; format: physicochemical; conditions: 0.2M solution titrated with 6N HCl
[4] = tested on: SH2 domains of P13-kinase P85; test: SH2 domain binding of GXVPML analog peptides (FIG. 2); conditions: peptide GXVPML, X varied
Description: as §1

[5] = target: T2, association between pp60^c-grc /mT and PI 3-kinase; conditions: presence of vanadate; Auger et al., 1992; cited from earlier work
[6] = tested on: association of PtdIns 3-kinase with mT/pp60^c-src complex; test: Peptide competition of PtdIns 3-kinase association with immunopurified mT/pp60^c-src; format: biochemical; conditions: peptide pre-incubated with whole cell lysates
Description: (§2) In vitro association of phosphatidylinositol 3-kinase with immunopurified mT/pp60^c-src was assayed as follows. Washed mT/pp60^c-src immune complexes were incubated with purified PtdIns 3-kinase in 750 μl to 1 ml of standard lysis buffer (see above) at 4° C. on a platform rocker. The typical incubation was for 2-3 hours after which the complexes were collected by a brief centrifugation and washed twice with 1% […], twice with 0.5M LiCl in 0.1M Tris-HCl, and twice with TNE.
(§3) Mammalian whole cell lysates were prepared from confluent 10 cm cell culture plates. The monolayer was washed once with 4° C. PBS and lysed in 1.0 ml of standard lysis buffer. After 10 minutes of incubation on a rocker platform at 4° C., the cells were scrape harvested and lysates cleared by centrifugation at 12,000×g for 5 minutes at 4° C. Lysates were used immediately for association experiments with the immunopurified mT/pp60^c-src complex.
(§4) Phosphatidylinositol kinase assays and protein kinase assays were performed as follows. Phosphatidylinositol kinase assays were performed directly on the immune complex as described, Whitman et al., 1985, supra; Auger et al., 1989, supra. Sonicated phospholipids were added to the washed beads and the reaction was initiated with the addition of 50 μM ATP, 5-25 μCi [γ^32 P]ATP (3000/Ci/mmole), 5 mM MgCl2 in 20 mM HEPES (pH 7.5). Reactions were incubated for 5 minutes at room temperature. The 50 μl reactions were stopped by the addition of 80 μl of 1M HCl and 1 μl of 500 mM EDTA. The lipids were extracted with 160 μl of methanol:chloroform (1:1) and the organic layer was collected for analysis.
(§5) The major site of tyrosine phosphorylation on mT by pp60^c-src is tyrosine 315. […]
(§6) Proteins that were prevented from associating with the mT/pp60^c-src complex by the phosphorylated peptide were also determined. […]

[7] = target: T4, association of PtdIns 3-kinase with mT/pp60^c-src complex (Rattus norvegicus, UniProt Q63787); test: as above; format: biochemical; conditions: Tran^35 S-labelled Rat-1 whole cell lysates, gel electrophoresis
T4 construct: from tissue; host or cells: rat liver (PtdIns 3-kinase); mT/pp60c-src complex immunopurified from baculovirus-infected Sf9 cells
Description: as §2, §3, §4, §5, §6

T2 sequence (P26450 whole entry): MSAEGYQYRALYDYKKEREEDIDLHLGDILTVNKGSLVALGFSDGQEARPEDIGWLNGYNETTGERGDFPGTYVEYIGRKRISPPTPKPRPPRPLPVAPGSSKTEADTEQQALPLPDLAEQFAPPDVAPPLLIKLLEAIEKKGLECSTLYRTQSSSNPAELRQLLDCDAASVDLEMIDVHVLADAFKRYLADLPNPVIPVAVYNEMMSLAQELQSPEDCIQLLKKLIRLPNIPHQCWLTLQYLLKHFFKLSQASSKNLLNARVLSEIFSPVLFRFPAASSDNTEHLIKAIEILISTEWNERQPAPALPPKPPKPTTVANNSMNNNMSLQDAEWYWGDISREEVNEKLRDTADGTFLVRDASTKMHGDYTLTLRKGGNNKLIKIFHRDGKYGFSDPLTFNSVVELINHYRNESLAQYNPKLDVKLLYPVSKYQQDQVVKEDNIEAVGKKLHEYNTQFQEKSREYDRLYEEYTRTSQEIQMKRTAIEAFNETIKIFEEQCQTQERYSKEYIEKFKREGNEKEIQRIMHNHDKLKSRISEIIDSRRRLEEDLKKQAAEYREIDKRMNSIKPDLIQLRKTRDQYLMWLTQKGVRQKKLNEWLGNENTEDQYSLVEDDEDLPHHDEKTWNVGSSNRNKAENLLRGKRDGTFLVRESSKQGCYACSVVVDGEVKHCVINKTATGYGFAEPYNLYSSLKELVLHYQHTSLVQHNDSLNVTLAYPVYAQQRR
T4 sequence (Q63787 whole entry, one chain of several): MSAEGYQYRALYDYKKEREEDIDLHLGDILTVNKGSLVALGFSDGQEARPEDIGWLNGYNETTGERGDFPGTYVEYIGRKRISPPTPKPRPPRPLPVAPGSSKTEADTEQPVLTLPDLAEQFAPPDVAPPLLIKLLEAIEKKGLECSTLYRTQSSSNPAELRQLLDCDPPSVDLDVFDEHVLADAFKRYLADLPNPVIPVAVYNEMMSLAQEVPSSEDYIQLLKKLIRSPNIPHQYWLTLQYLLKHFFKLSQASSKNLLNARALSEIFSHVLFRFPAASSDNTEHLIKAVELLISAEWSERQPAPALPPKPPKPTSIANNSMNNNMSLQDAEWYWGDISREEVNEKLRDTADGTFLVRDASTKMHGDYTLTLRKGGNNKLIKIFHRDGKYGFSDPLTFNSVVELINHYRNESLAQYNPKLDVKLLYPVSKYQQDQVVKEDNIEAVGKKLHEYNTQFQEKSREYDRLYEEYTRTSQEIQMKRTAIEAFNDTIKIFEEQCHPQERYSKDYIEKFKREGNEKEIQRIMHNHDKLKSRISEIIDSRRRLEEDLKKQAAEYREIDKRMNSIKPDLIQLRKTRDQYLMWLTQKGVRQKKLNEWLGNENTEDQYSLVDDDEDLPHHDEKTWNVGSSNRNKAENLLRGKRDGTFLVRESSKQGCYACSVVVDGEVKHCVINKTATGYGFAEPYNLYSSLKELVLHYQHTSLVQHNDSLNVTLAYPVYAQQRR
SH2 domain of Src, sequence (P12931 151-248 limits assumed): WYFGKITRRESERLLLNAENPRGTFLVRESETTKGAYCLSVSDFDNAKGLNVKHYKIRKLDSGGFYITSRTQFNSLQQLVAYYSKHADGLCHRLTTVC
T1 sequence (P27986 333-428 limits assumed): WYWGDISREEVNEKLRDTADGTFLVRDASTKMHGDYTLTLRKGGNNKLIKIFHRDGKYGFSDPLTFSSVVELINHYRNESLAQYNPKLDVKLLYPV

CC[C@H](C)[C@H](NC(=O)[C@H](CCC(=O)O)NC(=O)[C@H](CCC(=O)O)NC(=O)[C@H](Cc1ccc(OP(=O)(O)O)cc1)NC(=O)[C@H](CCC(N)=O)NC(C)=O)C(=O)N1CCC[C@H]1C(N)=O [QXEEIP (pTyr)] (Ac-Q[pY]EEIP-NH2)
IC50 (SH2 domain of Src): 5.7 ± 0.7 µM

CSCC[C@H](NC(=O)[C@@H]1CCCN1C(=O)[C@H](CCSC)NC(=O)[C@H](Cc1ccc(OP(=O)(O)O)cc1)NC(=O)[C@H](CCC(=O)O)NC(=O)[C@H](CCC(=O)O)NC(=O)[C@@H](N)CCC(=O)O)C(=O)N[C@@H](CCC(=O)O)C(=O)N[C@@H](CC(=O)O)C(=O)N[C@@H](CC(C)C)C(=O)N[C@@H](Cc1ccc(O)cc1)C(=O)O [mT-pY315, EEEpYMPMEDLY] (H-EEE[pY]MPMEDLY-OH)
estimated KD [1]: 0.01 µM
inhibition of association between pp60^c-grc /mT and PI 3-kinase [2]: obliterated in the absence of vanadate

N[C@@H](Cc1ccc(OP(=O)(O)O)cc1)C(=O)O [phosphotyrosine, reference compound]
Km (Rat PTPase 1B; apparent Km as substrate): > 2000 µM
Km (Rat PTPase 1B; apparent Km, phosphotyrosine and pY-peptides as substrates): > 2000 µM
side chain pK3 [3]: 5.7

GXVPML (Pmp): peptide GXVPML (SEQ ID NO: 45) with X = Pmp (G[Pmp]VPML)
ED50 [4]: 1.0 ± 0.1 µM

RENEYMPMAPQIH [unphosphorylated peptide, unphosphorylated version of the hamster mT peptide]
activity on association between pp60^c-grc /mT and PI 3-kinase [5]: no detectable activity
effect on association of PtdIns 3-kinase with mT/pp60^c-src ([6]; listed as non-phosphorylated peptide): had no effect on the association
effect on association of PtdIns 3-kinase with mT/pp60^c-src ([6]; listed as unphosphorylated version of the peptide): did not affect the association
effect on association of labelled proteins (110 kDa doublet, 85 kDa) with mT/pp60^c-src [7]: did not affect this association
